Laboratory results taken from ChEMBL document CHEMBL3603785, “Discovery and Optimization of 4-(8-(3-Fluorophenyl)-1,7-naphthyridin-6-yl)transcyclohexanecarboxylic Acid, an Improved PDE4 Inhibitor for the Treatment of Chronic Obstructive Pulmonary Disease (COPD)” (J Med Chem, 2015).
≈ marks a conversion by molar mass, not a printed value.

What was measured:
[1] = Thermodynamic aqueous solubility of the compound at pH 6.8; format: physicochemical; details: for solubility thermodynamic: aqueous, read-out: Therm_solubility; for Therm_solubility: buffer
[2] = High throughput kinetic solubility of the compound at pH 6.8; format: physicochemical; details: buffer, read-out: Kinetic_solubility
[3] = test system: Rattus norvegicus; test: AUC in rat at 4.2 uM/kg, po; format: ADME, organism-based; details: in vivo
[4] = test system: Rattus norvegicus; test: AUC in rat at 2.1 uM/kg, po; format: ADME, organism-based; details: in vivo
[5] = test system: Rattus norvegicus; test: Oral bioavailability in rat at 2.1 uM/kg; format: ADME, organism-based; details: in vivo
[6] = target: 3',5'-cyclic-AMP phosphodiesterase 4D (Homo sapiens, UniProt Q08499); test: Inhibition of human PDE4D
[7] = test system: Rattus norvegicus; test: Volume of distribution at steady state in rat at 1.05 uM/kg, iv; format: ADME, organism-based; details: in vivo
[8] = test system: Rattus norvegicus; test: Half life in rat at 1.05 uM/kg, iv; format: ADME, organism-based; details: in vivo
[9] = test system: Rattus norvegicus; test: AUC in po dosed rat; format: ADME, organism-based; details: in vivo
[10] = test system: Rattus norvegicus; test: Half life in po dosed rat; format: ADME, organism-based; details: in vivo

Chain of 3',5'-cyclic-AMP phosphodiesterase 4D (Q08499 whole entry): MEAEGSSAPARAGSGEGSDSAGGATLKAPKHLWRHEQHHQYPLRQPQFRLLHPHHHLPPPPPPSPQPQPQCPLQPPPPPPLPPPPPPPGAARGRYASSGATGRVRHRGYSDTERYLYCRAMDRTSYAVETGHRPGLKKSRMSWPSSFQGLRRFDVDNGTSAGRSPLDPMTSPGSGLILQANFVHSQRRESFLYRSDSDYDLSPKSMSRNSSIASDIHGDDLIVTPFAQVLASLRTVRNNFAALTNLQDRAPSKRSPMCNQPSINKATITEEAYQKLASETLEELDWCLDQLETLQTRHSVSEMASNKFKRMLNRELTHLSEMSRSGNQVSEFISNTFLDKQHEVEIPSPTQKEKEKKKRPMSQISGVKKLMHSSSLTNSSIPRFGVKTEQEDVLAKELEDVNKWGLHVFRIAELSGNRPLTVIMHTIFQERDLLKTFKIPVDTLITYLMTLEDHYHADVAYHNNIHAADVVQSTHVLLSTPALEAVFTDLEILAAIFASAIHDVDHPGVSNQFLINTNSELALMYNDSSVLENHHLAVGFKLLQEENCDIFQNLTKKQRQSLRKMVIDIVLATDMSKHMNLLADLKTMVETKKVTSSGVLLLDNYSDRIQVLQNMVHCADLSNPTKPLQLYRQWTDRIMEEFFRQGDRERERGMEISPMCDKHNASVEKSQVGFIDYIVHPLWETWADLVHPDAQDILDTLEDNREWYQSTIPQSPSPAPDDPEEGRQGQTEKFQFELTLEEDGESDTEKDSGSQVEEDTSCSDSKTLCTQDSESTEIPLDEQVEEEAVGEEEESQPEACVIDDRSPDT

SMILES	solubility thermodynamic [1]	solubility kinetic [2]	IC50 [6]	other results
O=C(O)C1CCN(c2cc3cccnc3c(-c3cccc(F)c3)n2)CC1	> 4 µg/mL	> 70 µg/mL	–	AUC [3]: 3919 µM/min
N#Cc1cccc(-c2nc(N3CCC(C(=O)O)CC3)cc3cccnc23)c1	> 4 µg/mL	20 µg/mL (≈ 55.8 µM)	–	AUC [4]: 2768 µM/min; F [5]: 157.5%
COc1cccc(-c2nc([C@H]3CC[C@H](C(=O)O)CC3)cc3cccnc23)c1	–	20 µg/mL (≈ 55.2 µM)	–	Therm_solubility [1]: 0.15 µg/mL
O=C(O)[C@H]1CC[C@H](c2cc3cccnc3c(-c3cccc(F)c3)n2)CC1	–	10 µg/mL (≈ 28.5 µM)	–	Therm_solubility [1]: 0.92 µg/mL; AUC [4]: 4408 µM/min
N#Cc1cccc(-c2nc([C@H]3CC[C@H](C(=O)O)CC3)cc3cccnc23)c1	–	20 µg/mL (≈ 56 µM)	–	Therm_solubility [1]: 0.43 µg/mL; AUC [3]: 112900 µM/min
O=C(O)[C@H]1CC[C@H](c2cc3cccnc3c(-c3cccc(Cl)c3)n2)CC1	0.14 µg/mL (≈ 0.382 µM)	100 µg/mL (≈ 273 µM)	30 nM	–
N#Cc1cccc(-c2nc(N3CCC(C(N)=O)CC3)cc3cccnc23)c1	–	–	8 nM	Vdss [7]: 2.9 L/kg; t1/2 [8]: 8 min
N#Cc1cccc(-c2nc(N3CCC(CO)CC3)cc3cccnc23)c1	–	–	13 nM	–
N#Cc1cccc(-c2nc(N3CCC(O)CC3)cc3cccnc23)c1	–	–	22 nM	–
N#Cc1cccc(-c2nc(N3CCOCC3)cc3cccnc23)c1	–	–	3 nM	–
O=C(O)c1ccc(-c2cc3cccnc3c(-c3ccc4nonc4c3)n2)cc1	2.3 µg/mL (≈ 6.24 µM)	–	–	AUC [9]: 523 µM/min; t1/2 [10]: 12 min
